Data on 30 compounds can be found in US5877174A, “2,3-diketopiperazine derivatives or their salts” (Toyama Chemical Co., Ltd., priority 1994, dated 1999).

Where a name gives a salt, the structure may show the parent alone.

The subject of data set [1] is human platelet aggregation. Put plainly: Inhibitory effect on human platelet aggregation (ADP-induced, platelet-rich plasma, aggreometer). Type of data set: cell-based. To be noted: 5×10^8 platelets/ml, ADP final concentration 3 μM, 37° C., 3 min preincubation, read-out: 50% inhibitory concentration (IC50). On the procedure: A mixture of blood collected from a human elbow vein and a 3.8% sodium citrate solution in the ratio of 9:1 (v/v) was centrifuged at room temperature to obtain platelet-rich plasma and platelet-poor plasma. Then, the platelet-rich plasma was diluted with the platelet-poor plasma to adjust the number of platelets to 5×10^8 platelets/ml. […] After 3 minutes, 18.75 μl of adenosine 5'-diphosphate (ADP) (final concentration: 3 μM) was added to the mixture and a change in the intensity of transmitted light caused by the aggregation was recorded with the lapse of time with an aggreometer.

For the next data set, the system named is ddY strain male mice. Nature of the data set: Acute toxicity (intravenous, mice). The class given is in vivo. To be noted: 300 mg/kg, intravenous (tail), physiological saline. As to the method: A solution of the compound of Example 58 in physiological saline was intravenously administered to a group consisting of 5 ddY strain male mice (average body weight: 27.5 g) each, in the tails, whereby the acute toxicity of the compound was investigated. As a result, no mouse died at a dose of the test compound of 300 mg/kg.

As to `N=C(N)c1ccc(S(=O)(=O)NCCCN2CCN(CC(=O)O)C(=O)C2=O)cc1` [105(2), [4-[3-(4-Amidinobenzenesulfonylamino)propyl]-2,3-dioxopiperazin-1-yl]aceticacid], the IC50 in data set [1] amounted to 950 nM.
In the case of `N=C(N)c1ccc(OCCCN2CCN(CC(=O)O)C(=O)C2=O)cc1` [Example 10, [4-[3-(4-Amidinophenoxy)propyl]-2,3-dioxopiperazin-1yl]acetic acid hydrochloride], in data set [1], the IC50 was 5000 nM.
Same read-out and setting: to `N=C(N)c1ccc(OCCCCCN2CCN(CC(=O)O)C(=O)C2=O)cc1` [Example 13] belongs 10000 nM.
For the compound `N=C(N)c1ccc(OCCCN2CCN(CCC(=O)O)C(=O)C2=O)cc1` [Example 15], the IC50 in data set [1] is 4700 nM.
`N=C(N)c1ccc(OCCN2CCN(CCCC(=O)O)C(=O)C2=O)cc1` [Example 16]: the IC50 in data set [1] worked out at 2200 nM.
On the same count and under the same terms, then `N=C(N)c1ccc(OCCCn2ccn(CC(=O)O)c(=O)c2=O)cc1` [Example 17, [4-[3-(4-Amidinophenoxy)propyl]-1,2,3,4-tetrahydro-2,3-dioxopyrazin-1-yl]acetic acid hydrochloride], with 42000 nM; and `N=C(N)c1ccc(OCCCCN2CCN(C(C(=O)O)c3ccccc3)C(=O)C2=O)cc1` (stereo not drawn) [Example 19, α-[4-[4-(4-Amidinophenoxy)butyl]-2,3-dioxopiperazin-1yl]-α-phenylacetic acid], with 140 nM; and `N=C(N)c1ccc(OCCCN2CCN(CC(Cc3ccc4c(c3)OCO4)C(=O)O)C(=O)C2=O)cc1` (stereo not shown) [Example 20, 2-[(1,3-Benzodioxol-5-yl)methyl]-3-[4-[3-(4-amidinophenoxy)propyl]-2,3-dioxopiperazin-1-yl]propionic acid], with 900 nM.
In the case of `N=C(N)c1ccc(OCCCN2CCN(C(CC(=O)O)c3cccnc3)C(=O)C2=O)cc1` (stereo not shown) [Example 58, 3-[4-[3-(4-Amidinophenoxy)propyl]-2,3-dioxopiperazin-1-yl]-3-(pyridin-3-yl)propionic acid], the “acute toxicity (mortality)” value in the data set with ddY strain male mice is on record as “no mouse died”. Also, the IC50 in data set [1] was 54 nM.
As for `CC(CC(=O)O)N1CCN(CCCOc2ccc(C(=N)N)cc2)C(=O)C1=O` (stereo not shown) [Example 59, 3-[4-[3-(4-Amidinophenoxy)propyl]-2,3-dioxopiperazin-1-yl]-3-methylpropionic acid], the IC50 in data set [1] worked out at 370 nM.
Same read-out and setting: to `N=C(N)c1ccc(OCCCN2CCN(C(CC(=O)O)c3cccs3)C(=O)C2=O)cc1` (stereo not shown) [Example 61] belongs 120 nM; to `N=C(N)c1ccc(OCCCN2CCN(C(CC(=O)O)C(=O)O)C(=O)C2=O)cc1` (stereo not shown) [Example 62, 2-[4-[3-(4-Amidinophenoxy)propyl]-2,3-dioxopiperazin-1-yl]succinic acid], 3200 nM.
The same measure, in the same setting: to `COc1ccc(C(CC(=O)O)N2CCN(CCCOc3ccc(C(=N)N)cc3)C(=O)C2=O)cc1` (stereo not shown) [Example 64] belongs 160 nM; to `N=C(N)c1ccc(OCCCN2CCN(C(CC(=O)O)c3ccc(F)cc3)C(=O)C2=O)cc1` (stereo not shown) [Example 65], 290 nM.
Take `N=C(N)c1ccc(OCCCN2CCN(C(CC(=O)O)c3ccc4c(c3)OCO4)C(=O)C2=O)cc1` (stereo not shown) [Example 66, 3-[4-[3-(4-Amidinophenoxy)propyl]-2,3-dioxopiperazin-1-yl]-3-(1,3-benzodioxol-5-yl)propionic acid]: in data set [1], the IC50 turned out to be 140 nM.
On the same count and under the same terms, to `N=C(N)c1ccc(OCCCN2CCN(C(CC(=O)O)c3ccco3)C(=O)C2=O)cc1` (stereo not shown) [Example 67] belongs 570 nM; to `N=C(N)c1ccc(OCCCN2CCN(C(CC(=O)O)c3ccc(F)cc3F)C(=O)C2=O)cc1` (stereo not shown) [Example 77], 140 nM; to `COc1cccc(C(CC(=O)O)N2CCN(CCCOc3ccc(C(=N)N)cc3)C(=O)C2=O)c1` (stereo not shown) [Example 78], 150 nM.
Take `N=C(N)c1ccc(OCCCCN2CCN(C(CC(=O)O)c3cccnc3)C(=O)C2=O)cc1` (stereo not shown) [Example 79, 3-[4-[4-(4-Amidinophenoxy)butyl]-2,3-dioxopiperazin-1-yl]-3-(pyridin-3-yl)propionic acid]: the IC50 in data set [1] turned out to be 3500 nM.
Regarding `CCCCC(CC(=O)O)N1CCN(CCCOc2ccc(C(=N)N)cc2)C(=O)C1=O` (stereo not shown) [Example 82, 3-[4-[3-(4-Amidinophenoxy)propyl]-2,3-dioxopiperazin-1-yl]-3-(butyl)propionic acid], in data set [1], the IC50 is 480 nM.
Still for that read-out and setting: then `N=C(N)c1ccc(OCCCN2CCN(C(CC(=O)O)C3CC3)C(=O)C2=O)cc1` (stereo not shown) [Example 83, 3-[4-[3-(4-Amidinophenoxy)propyl]-2,3-dioxopiperazin-1-yl]-3-(cyclopropyl)propionic acid], with 1100 nM; and `N=C(N)c1ccc(OCCCN2CCN(C(CC(=O)O)c3cccc4ccccc34)C(=O)C2=O)cc1` (stereo not shown) [Example 85], with 290 nM.
Still for that read-out and setting: to `N=C(N)c1ccc(OCCCN2CCN(CC(C(=O)O)c3ccccc3)C(=O)C2=O)cc1` (stereo not shown) [Example 87, 3-[4-[3-(4-Amidinophenoxy)propyl]-2,3-dioxopiperazin-1-yl]-2-phenylpropionic acid] belongs 530 nM; to `CCOC(=O)CC(c1cccnc1)N1CCN(CCCOc2ccc(C(=N)N)cc2)C(=O)C1=O` (stereo not shown) [Example 88, Ethyl 3-[4-[3-(4-amidinophenoxy)propyl]-2,3-dioxopiperazin-1yl]-3-(pyridin-3-yl)propionate hydrochloride], 3400 nM; to `N=C(N)c1ccc(C(=O)NCCN2CCN(C(CC(=O)O)c3cccnc3)C(=O)C2=O)cc1` (stereo not shown) [Example 97, 3-[4-[2-(4-Amidinobenzoyl)aminoethyl]-2,3-dioxopiperazin-1yl]-3-(pyridin-3-yl)propionic acid], 560 nM.
The same measure, in the same setting: to `N=C(N)c1ccc(C(=O)NCCN2CCN(CCC(=O)O)C(=O)C2=O)cc1` [Example 99] belongs 2100 nM; to `N=C(N)c1ccc(C(=O)NCCCN2CCN(CC(Cc3ccc4c(c3)OCO4)C(=O)O)C(=O)C2=O)cc1` (stereo not shown) [Example 102, 3-[4-[3-(4-Amidinobenzoylamino)propyl]-2,3-dioxopiperazin-1-yl]-2-[(1,3-benzodioxol-5-yl)methyl]-propionic acid], 500 nM.
For `N=C(N)c1ccc(C(=O)NCCN2CCN(CC(=O)O)C(=O)C2=O)cc1` [Example 103, [4-[2-(4-Amidinobenzoylamino)ethyl]-2,3-dioxopiperazin-1-yl]acetic acid], the IC50 in data set [1] stood at 1900 nM.
Same read-out and setting: then `N=C(N)c1ccc(C(=O)NCCCN2CCN(CC(=O)O)C(=O)C2=O)cc1` [Example 104, [4-[3-(4-Amidinobenzoylamino)propyl)-2,3-dioxopiperazin-1-yl]acetic acid], with 800 nM; and `CC(C)(C)OC(=O)CN1CCN(CCCC(=O)Nc2ccc(C(=N)NC(=O)OCc3ccccc3)cc2)C(=O)C1=O` [Example 106, tert-Butyl [4-[4-(4-benzyloxycarbonylamidino-phenylamino) -4-oxobutyl]-2,3-dioxopiperazin-1-yl]acetate], with 1000 nM.
